{"source": "patent US6641840B2", "about": "“Sustained release formulations for growth hormone secretagogues” (Pfizer Inc., priority 2000, dated 2003)", "key": {"[1]": {"test": "Excipient selection based on active compound solubility screening", "type": "physicochemical", "settings": "for solubility at 5 min: filtrate of excipient solution in water, 37 °C, thermodynamic from solid", "method": "Such excipients are useful in making osmotic sustained release tablets. […] The active compound solubility measured in this manner exceeded 150 mgA/ml (mgA is the milligrams of active compound).\nThe excipients were screened by preparing a saturated solution (unless otherwise noted) of the candidate excipient in water at 37° C. for 2 hrs, and filtering the undissolved portion. […] The solution was maintained at 37° C. for 5 minutes prior to making the visual observation for any undissolved particulates."}, "rat pituitary cells": {"tested_on": "rat pituitary cells", "test": "Pituitary cell desensitization - intracellular calcium assay", "type": "cell-based", "excerpt": "Thus, it appears that sustained release formulations would not provide the desired in vivo response. The experiment was designed so that changes in intracellular calcium concentration could be continuously monitored during successive exposures of the same cells to the indicated test substances.\nRat pituitary cells were isolated as described in Example 3 and plated onto poly-D-lysine-coated glass coverslips, one coverslip per well in 12-well plates, at a density of 3-4×10^5 cells per well. Assays were performed 3-4 days after plating. Cells were loaded with 5 μM fura-2 AM (Molecular Probes, Eugene, Oreg.), a calcium-sensitive fluorescent dye, by incubation for 30 min at room temperature. Fura-2 was dissolved in dimethylsulfoxide at 5 mM, then diluted into KRH buffer (115 mM NaCl, 5.4 mM KCl, 1.8 mM CaCl2, 1 mM MgCl2, 0.96 mM NaH2PO4, 25 mM HEPES, 6 mM glucose and 0.05% bovine serum albumin, adjusted to pH 7.3)\nTo assay changes in intracellular calcium concentration, a coverslip with attached cells was mounted in a perfusion chamber on the stage of an inverted microscope (Zeiss Axiovert 135 with epifluorescence, Geschaftsbereich Mikroscopie, Oberkochen, Germany) and continuously superfused at room temperature. After superfusion with KRH for 1-2 min, baseline fluorescence was recorded. Each test substance was applied for 2 min, followed by washout with KRH prior to stimulation with the next test substance. Up to 20 individual cells per field were selected for recording and were excited alternately at wavelengths of 380 nm or 340 nm (slit width 15 nm). Fluorescence emission at 510 nm was collected at 5 sec intervals by a low light CCD camera (Hamamatsu Photonics, Hamamatsu City, Japan), and digitized images for the two excitation wavelengths were analyzed using Videoprobe software (ETM Systems, Irvine, Calif.) to determine the 340 nm/380 nm fluorescence ratio for individual cells during each time interval. The 340 nm/380 nm fluorescence ratio is proportional to the concentration of intracellular calcium."}, "growth hormone": {"tested_on": "growth hormone", "test": "Simulated sustained release study (bolus vs divided oral solution): serum growth hormone", "type": "in vivo, human", "settings": "for GH Tmax: individual subjects 1-4", "method": "This dosing regimen simulates active compound delivery by a sustained release dosage form. […] Serum concentrations of growth hormone were monitored just prior to administration of the first dose and every 20 minutes thereafter for 24 hours. Serum […] growth factor-I (IGF-I) concentrations were measured at 0, 12, and 24 hours post-first dose.\nThe order of treatment was defined by a randomization schedule. Following initial administration, subjects were readmitted to the clinical research facility approximately 14 days later. During the second evaluation, the subject received the treatment not used during the previous session.\nGrowth hormone serum concentrations were determined following administration of the bolus or divided doses. Blood samples, adequate to provide 0.5 ml of serum, were collected just prior to administration of the first dose, and every 20 minutes thereafter for 24 hours for determination of growth hormone. Specimens were collected in tubes containing no additives, and were maintained at room temperature until clotted. The serum was separated from the whole blood and frozen at −20° C. within one hour of collection.\nGrowth hormone quantitation of the human serum samples was conducted using luminescence measurements by means of an Immulite® system (Diagnostic Products Corporation, Los Angeles, Calif.). All analyses were performed using a hGH Immulite® kit containing hGH test units (LGH 1), hGH reagent wedge (LGH 2) and hGH adjustors (LGHL and LGHH). These kits were obtained from DPC (Diagnostic Products Corporation, Los Angeles, Calif.). In addition, hGH sample diluent (LGHZ), chemiluminescent substrate module (LSUBX), probe wash module (LPWSZ) and the necessary Immulite® accessories were obtained from DPC. For each new kit, the Immulite® system was calibrated by running two adjuster samples (LGHL and LGHH) obtained from the manufacturer, containing a […] concentration of hGH in equine serum, respectively. […] The resulting luminescence was determined by means of an Immulite® system."}}, "note": "Values joined by “and” are separate entries in the source; they are usually repeats but may differ in a detail not shown here. Equal entries are not always repeated. Where two headings read alike, the source gives them in different places.", "data": [{"molecule": "CN1N=C2CCN(C(=O)[C@@H](COCc3ccccc3)NC(=O)C(C)(C)N)C[C@@]2(Cc2ccccc2)C1=O.O=C(O)C(O)C(O)C(=O)O", "note": "[Compound A]", "values": [{"measurement": "visual observation on addition of Compound A", "setting": "[1]; L-lysine solution 50 mg/ml, 37° C.", "value": "cloudy gel"}, {"measurement": "solubility at 5 min", "setting": "[1]; aqueous buffer, L-lysine solution 50 mg/ml (below saturation), 37° C., read-out: COMPOUND A Solubility", "value": "< 50", "unit": "mg/mL"}, {"measurement": "solubility at 5 min", "setting": "[1]; aqueous buffer, saturated L-arginine solution, approx. 150 mg/ml, 37° C., read-out: COMPOUND A Solubility", "value": "< 50", "unit": "mg/mL"}, {"measurement": "solubility at 5 min", "setting": "[1]; aqueous buffer, saturated L-aspartic acid solution, approx. 7 mg/ml, 37° C., read-out: COMPOUND A Solubility", "value": "> 150", "unit": "mg/mL"}, {"measurement": "solubility at 5 min", "setting": "[1]; aqueous buffer, saturated ascorbic acid solution, approx. 400 mg/ml, 37° C., read-out: COMPOUND A Solubility", "value": "> 150", "unit": "mg/mL"}, {"measurement": "solubility at 5 min", "setting": "[1]; aqueous buffer, saturated citric acid solution, approx. 600 mg/ml, 37° C., read-out: COMPOUND A Solubility", "value": "> 150", "unit": "mg/mL"}, {"measurement": "solubility at 5 min", "setting": "[1]; aqueous buffer, saturated fumaric acid solution, approx. 10 mg/ml, 37° C., read-out: COMPOUND A Solubility", "value": "> 150", "unit": "mg/mL"}, {"measurement": "solubility at 5 min", "setting": "[1]; aqueous buffer, saturated potassium phosphate monobasic solution, approx. 400 mg/ml, 37° C., read-out: COMPOUND A Solubility", "value": "< 50", "unit": "mg/mL"}, {"measurement": "solubility at 5 min", "setting": "[1]; aqueous buffer, saturated sodium bitartrate solution, approx. 110 mg/ml, 37° C., read-out: COMPOUND A Solubility", "value": "> 150", "unit": "mg/mL"}, {"measurement": "solubility at 5 min", "setting": "[1]; aqueous buffer, saturated sodium citrate solution, approx. 520 mg/ml, 37° C., read-out: COMPOUND A Solubility", "value": "< 50", "unit": "mg/mL"}, {"measurement": "solubility at 5 min", "setting": "[1]; aqueous buffer, saturated sodium phosphate monobasic solution, approx. 1000 mg/ml, 37° C., read-out: COMPOUND A Solubility", "value": "< 50", "unit": "mg/mL"}, {"measurement": "solubility at 5 min", "setting": "[1]; aqueous buffer, saturated sodium phosphate tribasic solution, approx. 290 mg/ml, 37° C., read-out: COMPOUND A Solubility", "value": "< 50", "unit": "mg/mL"}, {"measurement": "solubility at 5 min", "setting": "[1]; aqueous buffer, saturated succinic acid solution, approx. 80 mg/ml, 37° C., read-out: COMPOUND A Solubility", "value": "> 150", "unit": "mg/mL"}, {"measurement": "solubility at 5 min", "setting": "[1]; aqueous buffer, sodium bitartrate buffer, read-out: solubility of the active compound", "value": "> 150", "unit": "mg/mL"}, {"measurement": "solubility at 5 min", "setting": "[1]; aqueous buffer, tartaric acid solution 50 mg/ml (below saturation), 37° C., read-out: COMPOUND A Solubility", "value": "> 150", "unit": "mg/mL"}, {"measurement": "solubility at 5 min", "setting": "[1]; aqueous with cosolvent or surfactant or cyclodextrin, cyclodextrin, sulfobutylether solution, approx. 1000 mg/ml, 37° C., read-out: COMPOUND A Solubility", "value": "100 to 150", "unit": "mg/mL"}, {"measurement": "solubility at 5 min", "setting": "[1]; aqueous with cosolvent or surfactant or cyclodextrin, polyethylene glycol (Carbowax 3350) 50 mg/ml, 37° C., read-out: COMPOUND A Solubility", "value": "> 150", "unit": "mg/mL"}, {"measurement": "solubility at 5 min", "setting": "[1]; aqueous with cosolvent or surfactant or cyclodextrin, sodium lauryl sulfate solution, approx. 50 mg/ml, 37° C., read-out: COMPOUND A Solubility", "value": "50 to 100", "unit": "mg/mL"}, {"measurement": "solubility at 5 min", "setting": "[1]; aqueous with cosolvent or surfactant or cyclodextrin, sulfobutylether cyclodextrin, read-out: active compound substance solubility", "value": "100 to 150", "unit": "mg/mL"}, {"measurement": "solubility at 5 min", "setting": "[1]; saline or isotonic, saturated potassium chloride solution, approx. 360 mg/ml, 37° C., read-out: COMPOUND A Solubility", "value": "< 50", "unit": "mg/mL"}, {"measurement": "solubility at 5 min", "setting": "[1]; saline or isotonic, saturated sodium chloride solution, approx. 360 mg/ml, 37° C., read-out: COMPOUND A Solubility", "value": "< 50", "unit": "mg/mL"}, {"measurement": "solubility at 5 min", "setting": "[1]; visual screening, 37° C., read-out: active compound solubility measured in this manner", "value": "> 150", "unit": "mg/mL"}, {"measurement": "solubility at 5 min", "setting": "[1]; water, calcium stearate < 1 mg/ml, prepared at 2 mg/mL, 37° C., read-out: COMPOUND A Solubility", "value": "> 150", "unit": "mg/mL"}, {"measurement": "solubility at 5 min", "setting": "[1]; water, magnesium stearate < 1 mg/ml, 37° C., read-out: COMPOUND A Solubility", "value": "> 150", "unit": "mg/mL"}, {"measurement": "solubility at 5 min", "setting": "[1]; water, microcrystalline cellulose (Avicel PH102) < 1 mg/ml, prepared at 80 mg/ml, 37° C., read-out: COMPOUND A Solubility", "value": "> 150", "unit": "mg/mL"}, {"measurement": "solubility at 5 min", "setting": "[1]; water, microcrystalline cellulose, silicified (Prosolv SMCC50) < 1 mg/ml, prepared at 80 mg/ml, 37° C., read-out: COMPOUND A Solubility", "value": "> 150", "unit": "mg/mL"}, {"measurement": "visual observation on addition of Compound A", "setting": "[1]; saturated potassium chloride solution, 37° C.", "value": "cloudy gel"}, {"measurement": "visual observation on addition of Compound A", "setting": "[1]; saturated sodium chloride solution, 37° C.", "value": "cloudy gel"}, {"measurement": "visual observation on addition of Compound A", "setting": "[1]; saturated sodium citrate solution, 37° C.", "value": "cloudy gel"}, {"measurement": "visual observation on addition of Compound A", "setting": "[1]; saturated sodium phosphate monobasic solution, 37° C.", "value": "cloudy gel"}, {"measurement": "visual observation on addition of Compound A", "setting": "[1]; saturated sodium phosphate tribasic solution, 37° C.", "value": "cloudy gel"}, {"measurement": "visual observation on addition of Compound A", "setting": "[1]; sodium lauryl sulfate solution 50 mg/ml, 37° C.", "value": "clear gel"}, {"measurement": "calcium flux on re-exposure to Compound A after washout", "setting": "rat pituitary cells; cells that initially responded to Compound A or GHRP-6", "value": "refractory"}, {"measurement": "desensitization between GHRH and Compound A", "setting": "rat pituitary cells; intracellular calcium, successive exposures", "value": "no desensitization"}, {"measurement": "cellular responses (intracellular calcium) on repeated exposure", "setting": "rat pituitary cells; successive 2 min exposures with washout", "value": "homologous desensitization"}, {"measurement": "GH Tmax", "setting": "growth hormone; 10 mg bolus, L-tartrate", "value": "1 h (3×) and 0.67 h"}, {"measurement": "GH Tmax", "setting": "growth hormone; 10 mg divided, in h", "value": 1}, {"measurement": "frequency and amplitude of secondary GH peaks", "setting": "growth hormone; simulated sustained release of 10 mg compared to bolus", "value": "increased"}]}]}
